Literature values as cited in article PMC3433420 (PLoS ONE, 2012).
Like-named read-outs stand apart in the source and are kept apart here.

Target: SH2 and PTB domains
Settings: cited from earlier work
Text: Supplement pone.0044471.s022.xlsx, sheet "Most recent PM interactions" | column: Kd || Supplement pone.0044471.s022.xlsx, sheet "All original PM interactions" | column: Kd

[1] = Protein ABL2, most recent PM interactions, ref Jones et al. 2006 / Kaushansky et al. Mol Biosys 2008 / Kaushansky et al. Chem and Biol 2008
[2] = Protein RASA1-N, most recent PM interactions, ref Jones et al. 2006 / Kaushansky et al. Mol Biosys 2008 / Kaushansky et al. Chem and Biol 2008
[3] = Protein SHC1-PTB, most recent PM interactions, ref Jones et al. 2006 / Kaushansky et al. Mol Biosys 2008 / Kaushansky et al. Chem and Biol 2008
[4] = Protein SHC2-PTB, most recent PM interactions, ref Jones et al. 2006 / Kaushansky et al. Mol Biosys 2008 / Kaushansky et al. Chem and Biol 2008
[5] = Protein SYK-NC, most recent PM interactions, ref Jones et al. 2006 / Kaushansky et al. Mol Biosys 2008 / Kaushansky et al. Chem and Biol 2008
[6] = Protein PIK3R1-NC, most recent PM interactions, ref Jones et al. 2006 / Kaushansky et al. Mol Biosys 2008 / Kaushansky et al. Chem and Biol 2008
[7] = Protein PIK3R2-N, most recent PM interactions, ref Jones et al. 2006 / Kaushansky et al. Mol Biosys 2008 / Kaushansky et al. Chem and Biol 2008
[8] = Protein PIK3R2-NC, most recent PM interactions, ref Jones et al. 2006 / Kaushansky et al. Mol Biosys 2008 / Kaushansky et al. Chem and Biol 2008
[9] = Protein PIK3R3-N, most recent PM interactions, ref Jones et al. 2006 / Kaushansky et al. Mol Biosys 2008 / Kaushansky et al. Chem and Biol 2008
[10] = Protein PIK3R3-NC, most recent PM interactions, ref Jones et al. 2006 / Kaushansky et al. Mol Biosys 2008 / Kaushansky et al. Chem and Biol 2008
[11] = Protein VAV2, most recent PM interactions, ref Jones et al. 2006 / Kaushansky et al. Mol Biosys 2008 / Kaushansky et al. Chem and Biol 2008
[12] = Protein SHB, most recent PM interactions, ref Jones et al. 2006 / Kaushansky et al. Mol Biosys 2008 / Kaushansky et al. Chem and Biol 2008
[13] = Protein YES1, most recent PM interactions, ref Jones et al. 2006 / Kaushansky et al. Mol Biosys 2008 / Kaushansky et al. Chem and Biol 2008
[14] = Protein BLK, most recent PM interactions, ref Jones et al. 2006 / Kaushansky et al. Mol Biosys 2008 / Kaushansky et al. Chem and Biol 2008
[15] = Protein RASA1-N, original PM interactions, ref Jones et al. 2006 / Kaushansky et al. Chem and Biol 2008
[16] = Protein CRK, most recent PM interactions, ref Jones et al. 2006 / Kaushansky et al. Mol Biosys 2008 / Kaushansky et al. Chem and Biol 2008

Substance: HQISLDNPDpYQQDFFPKd [ErbB1 1172]
- Kd [1]: 490 nM
- Kd [2]: 1140 nM
- Kd [3]: 40 nM
- Kd [4]: 1310 nM
- Kd [5]: 1280 nM

Substance: HSTAVGNPEpYLNTVQPTd [ErbB1 1138]
- Kd [1]: 120 nM
- Kd (Protein GRB2, most recent PM interactions, ref Jones et al. 2006 / Kaushansky et al. Mol Biosys 2008 / Kaushansky et al. Chem and Biol 2008): 420 nM
- Kd (Protein ITK, most recent PM interactions, ref Jones et al. 2006 / Kaushansky et al. Mol Biosys 2008 / Kaushansky et al. Chem and Biol 2008): 1760 nM
- Kd (Protein NCK2, most recent PM interactions, ref Jones et al. 2006 / Kaushansky et al. Mol Biosys 2008 / Kaushansky et al. Chem and Biol 2008): 330 nM
- Kd [6]: 1570 nM
- Kd [7]: 760 nM
- Kd [8]: 860 nM
- Kd [9]: 840 nM
- Kd [10]: 1690 nM
- Kd [2]: 390 nM
- Kd [3]: 170 nM
- Kd [11]: 370 nM
- Kd (Protein ZAP70-NC, most recent PM interactions, ref Jones et al. 2006 / Kaushansky et al. Mol Biosys 2008 / Kaushansky et al. Chem and Biol 2008): 1140 nM

Substance: IKEDSFLQRpYSSDPTGAd [ErbB1 1069]
- Kd [12]: 860 nM
- Kd [13]: 300 nM

Substance: KGSTAENAEpYLRVAPQSd [ErbB1 1197]
- Kd [1]: 210 nM
- Kd [10]: 1110 nM
- Kd [3]: 320 nM

Substance: KLLGAEEKEpYHAEGGKVd [ErbB1 869]
- Kd [1]: 1080 nM
- Kd [14]: 1710 nM

Substance: KQLLpYSEAKTPId [ErbB3 pY868, N-terminally rhodamine-labeled 13-mer phosphopeptide]
- Kd (Protein ABL2, original PM interactions, ref Jones et al. 2006 / Kaushansky et al. Chem and Biol 2008): 70 nM
- Kd (Protein BCAR3, original PM interactions, ref Jones et al. 2006 / Kaushansky et al. Chem and Biol 2008): 1780 nM
- Kd (Protein CRKL, original PM interactions, ref Jones et al. 2006 / Kaushansky et al. Chem and Biol 2008): 1760 nM
- Kd (Protein NCK2, original PM interactions, ref Jones et al. 2006 / Kaushansky et al. Chem and Biol 2008): 2000 nM
- Kd (Protein PIK3R3-NC, original PM interactions, ref Jones et al. 2006 / Kaushansky et al. Chem and Biol 2008): 2000 nM
- Kd [15]: 950 nM
- Kd (Protein SHC1-PTB, original PM interactions, ref Jones et al. 2006 / Kaushansky et al. Chem and Biol 2008): 2000 nM
- Kd (Protein SYK-NC, original PM interactions, ref Jones et al. 2006 / Kaushansky et al. Chem and Biol 2008): 920 nM

Substance: LGSGAFGTVpYKGLWIPEd [ErbB1 727]
- Kd (Protein SRC, most recent PM interactions, ref Kaushansky et al. Mol Biosys 2008): 580 nM
- Kd (Protein YES1, most recent PM interactions, ref Kaushansky et al. Mol Biosys 2008): 540 nM

Substance: LGYEpYMDVGSDLd [ErbB3 pY1224, N-terminally rhodamine-labeled 13-mer phosphopeptide]
- Kd (Protein PLCG2-NC, original PM interactions, ref Jones et al. 2006 / Kaushansky et al. Chem and Biol 2008): 2000 nM
- Kd [15]: 2000 nM
- Kd (Protein RASA1-NC, original PM interactions, ref Jones et al. 2006 / Kaushansky et al. Chem and Biol 2008): 2000 nM
- Kd (Protein SLA, original PM interactions, ref Jones et al. 2006 / Kaushansky et al. Chem and Biol 2008): 2000 nM
- Kd (protein ABL2, ref Jones et al. 2006 / Kaushansky et al. Chem and Biol 2008): 1130 nM
- Kd (protein PIK3R3-NC, ref Jones et al. 2006 / Kaushansky et al. Chem and Biol 2008): 1510 nM

Substance: LHRIpYTHQSDVWd [ErbB1 pY891, N-terminally rhodamine-labeled 13-mer phosphopeptide]
- Kd (protein HSH2D, ref Kaushansky et al. Mol Biosys 2008): 1130 nM
- Kd (protein TNS4, ref Kaushansky et al. Mol Biosys 2008): 300 nM

Substance: LPPDDKQLLpYSEAKTPI [ErbB3 868]
- Kd (Protein ABL2, most recent PM interactions, ref Jones et al. 2006 / Kaushansky et al. Chem and Biol 2008): 70 nM
- Kd (Protein BCAR3, most recent PM interactions, ref Jones et al. 2006 / Kaushansky et al. Chem and Biol 2008): 1780 nM
- Kd (Protein CRKL, most recent PM interactions, ref Jones et al. 2006 / Kaushansky et al. Chem and Biol 2008): 1760 nM
- Kd (Protein RASA1-N, most recent PM interactions, ref Jones et al. 2006 / Kaushansky et al. Chem and Biol 2008): 950 nM
- Kd (Protein SYK-NC, most recent PM interactions, ref Jones et al. 2006 / Kaushansky et al. Chem and Biol 2008): 920 nM

Substance: MDDVVDADEpYLIPQQGFd [ErbB1 1016]
- Kd [1]: 280 nM
- Kd [14]: 660 nM
- Kd [16]: 470 nM
- Kd (Protein CRKL, most recent PM interactions, ref Jones et al. 2006 / Kaushansky et al. Mol Biosys 2008 / Kaushansky et al. Chem and Biol 2008): 1000 nM
- Kd (Protein NCK1, most recent PM interactions, ref Jones et al. 2006 / Kaushansky et al. Mol Biosys 2008 / Kaushansky et al. Chem and Biol 2008): 1000 nM
- Kd (Protein PIK3R1-C, most recent PM interactions, ref Jones et al. 2006 / Kaushansky et al. Mol Biosys 2008 / Kaushansky et al. Chem and Biol 2008): 870 nM
- Kd (Protein PIK3R1-N, most recent PM interactions, ref Jones et al. 2006 / Kaushansky et al. Mol Biosys 2008 / Kaushansky et al. Chem and Biol 2008): 900 nM
- Kd [6]: 180 nM
- Kd [7]: 420 nM
- Kd [8]: 350 nM
- Kd (Protein PIK3R3-C, most recent PM interactions, ref Jones et al. 2006 / Kaushansky et al. Mol Biosys 2008 / Kaushansky et al. Chem and Biol 2008): 190 nM
- Kd [9]: 720 nM
- Kd [10]: 200 nM
- Kd (Protein PLCG1-NC, most recent PM interactions, ref Jones et al. 2006 / Kaushansky et al. Mol Biosys 2008 / Kaushansky et al. Chem and Biol 2008): 790 nM
- Kd (Protein PTPN11-N, most recent PM interactions, ref Jones et al. 2006 / Kaushansky et al. Mol Biosys 2008 / Kaushansky et al. Chem and Biol 2008): 380 nM
- Kd [2]: 490 nM
- Kd (Protein RASA1-NC, most recent PM interactions, ref Jones et al. 2006 / Kaushansky et al. Mol Biosys 2008 / Kaushansky et al. Chem and Biol 2008): 1420 nM
- Kd [12]: 1990 nM
- Kd [3]: 630 nM
- Kd [4]: 660 nM
- Kd (Protein SHC3, most recent PM interactions, ref Jones et al. 2006 / Kaushansky et al. Mol Biosys 2008 / Kaushansky et al. Chem and Biol 2008): 220 nM
- Kd (Protein SYK-C, most recent PM interactions, ref Jones et al. 2006 / Kaushansky et al. Mol Biosys 2008 / Kaushansky et al. Chem and Biol 2008): 930 nM
- Kd [5]: 610 nM
- Kd (Protein TNS4, most recent PM interactions, ref Jones et al. 2006 / Kaushansky et al. Mol Biosys 2008 / Kaushansky et al. Chem and Biol 2008): 920 nM
- Kd (Protein VAV1, most recent PM interactions, ref Jones et al. 2006 / Kaushansky et al. Mol Biosys 2008 / Kaushansky et al. Chem and Biol 2008): 1050 nM
- Kd [11]: 85 nM

Substance: NPAPSRDPHpYQDPHSTAd [ErbB1 1125]
- Kd [1]: 74 nM
- Kd (Protein BMX, most recent PM interactions, ref Jones et al. 2006 / Kaushansky et al. Mol Biosys 2008 / Kaushansky et al. Chem and Biol 2008): 1070 nM
- Kd [16]: 1230 nM
- Kd [2]: 1320 nM
- Kd [12]: 990 nM
- Kd [5]: 980 nM
- Kd (Protein TNS1, most recent PM interactions, ref Jones et al. 2006 / Kaushansky et al. Mol Biosys 2008 / Kaushansky et al. Chem and Biol 2008): 1280 nM
- Kd [13]: 380 nM

Substance: PAGSVQNPVpYHNQPLNPd [ErbB1 1110]
- Kd (Protein ABL1, most recent PM interactions, ref Jones et al. 2006 / Kaushansky et al. Mol Biosys 2008 / Kaushansky et al. Chem and Biol 2008): 520 nM
- Kd [1]: 60 nM
- Kd [3]: 320 nM
